Converted amounts (≈) assume the structure as drawn.
Experiments:
[1] = test system: HIV-1; assay: in-vitro anti-HIV assay: inhibition of HIV-induced cytopathic effect in MT-4 cells (MTT); type: cell-based; conditions: for SI (selectivity index, ratio of CD50 to ED50): CD50/ED50, MT-4 cells; for EC50: Human immunodeficiency virus 1, MT4, HIV-infected MT-4 cells, cytopathic effect, MTT, 540 nm, read-out: ED50 (dose achieving 50% protection)
Description: (§1) A rapid, sensitive and automated assay procedure was used for the in-vitro evaluation of anti-HIV agents. An […] T4-cell line, MT-4, which was previously shown (Koyanagi et al., Int. J. Cancer, 36, 445-451, 1985) to be highly susceptible to and permissive for HIV infection, served as the target cell line. Inhibition of the HIV-induced cytopathic effect was used as the end point. The viability of both HIV-and mock-infected cells was assessed spectrophotometrically via the in-situ reduction of 3-(4,5-dimethylthiazol-2-yl)-2,5-diphenyltetrazolium bromide (MTT). The 50% cytotoxic dose (CD50 in μg/ml) was defined as the concentration of compound that reduced the absorbance of the mock-infectedcontrol sample by 50%. The percent protection achieved by the compound in HIV-infected cells was calculated by the following formula: [formula] whereby (ODT)HIV is the optical density measured with a given concentration of the test compound in HIV-infected cells; (ODC)HIV is the optical density measured for the control untreated HIV-infected cells; (ODC)MOCK is the optical density measured for the control untreated mock-infected cells; all optical density values were determined at 540 nm. The dose achieving 50% protection according to the above formula was defined as the 50% effective dose (ED50 in μg/ml). The ratio of CD50 to ED50 was defined as the selectivity index (SI).

[2] = in vitro; type: cell-based; conditions: human, mt-4 cells
Description: as §1

Row | Structure (SMILES) | SI (selectivity index, ratio of CD50 to ED50) [1] | EC50 [1] [µg/mL] | CC50 [2] [µg/mL]
1 | Cc1cc(NC(C(N)=O)c2c(Cl)ccc(Cl)c2Cl)c([N+](=O)[O-])cc1C (stereo not drawn) [Compound 28] | ~ 140 | 0.07 (≈ 0.174 µM) | 10 (≈ 24.8 µM)
2 | NC(=O)C(Nc1ccccc1[N+](=O)[O-])c1c(Cl)cccc1Cl (single isomer, unassigned; (-)) [Compound 25, (-)-2,6-dichloro-α-[(2-nitrophenyl)amino]benzeneacetamide] | ~ 1600 | 0.018 (≈ 0.0529 µM) | 29 (≈ 85.3 µM)
3 | CC(=O)c1ccc(Cl)cc1NC(C(N)=O)c1c(Cl)cccc1Cl (stereo not drawn) [Compound 30, α-[(2-acetyl-5-chlorophenyl)amino]-2,6-dichlorobenzeneacetamide] | ~ 18000 | 0.011 (≈ 0.0296 µM) | 200 (≈ 538 µM)
4 | NC(=O)C(Nc1ccccc1[N+](=O)[O-])c1c(Cl)cccc1Cl (stereo not drawn) [Compound 15, 2-(2,6-dichlorophenyl)-2-[(2-nitrophenyl)amino]acetamide] | ~ 1000 | 0.02 (≈ 0.0588 µM) | 20 (≈ 58.8 µM)
5 | Cc1cc(NC(C(N)=O)c2c(Cl)cccc2Cl)c([N+](=O)[O-])cc1C (stereo not drawn) [Compound 24] | ~ 2100 | 0.077 (≈ 0.209 µM) | 160 (≈ 435 µM)
6 | Cc1ccc([N+](=O)[O-])c(NC(C(N)=O)c2c(Cl)cccc2Cl)c1 (single isomer, unassigned) [Compound 29, (-)-α-[(5-methyl-2-nitrophenyl)amino]-2,6-dichlorobenzeneacetamide] | ~ 1550 | 0.0032 (≈ 0.00903 µM) | 5 (≈ 14.1 µM)
7 | Cc1ccc([N+](=O)[O-])c(NC(C(N)=O)c2c(Cl)cccc2Cl)c1 (stereo not drawn) [Compound 26] | ≥ 4400 | 0.057 (≈ 0.161 µM) | > 250
8 | CC(=O)c1ccccc1NC(C(N)=O)c1c(Cl)cccc1Cl (racemic) [Compound 22, (±)-α[(2-acetylphenyl)amino]-2,6-dichlorobenzeneacetamide] | ~ 2700 | 0.013 (≈ 0.0386 µM) | 35 (≈ 104 µM)
9 | CC(=O)c1ccccc1NC(C(N)=O)c1c(Cl)cccc1Cl (single isomer, unassigned) [Compound 23, (-)-α-[(2-acetylphenyl)amino]-2,6-dichlorobenzeneacetamide] | ~ 3000 | 0.0066 (≈ 0.0196 µM) | 20 (≈ 59.3 µM)
10 | Cc1cc(C)c([N+](=O)[O-])c(NC(C(N)=O)c2c(Cl)cccc2Cl)c1 (stereo not drawn) [Compound 27] | ~ 100 | 0.049 (≈ 0.133 µM) | 5 (≈ 13.6 µM)

— patent US5556886A, “HIV-inhibiting benzeneacetamide derivatives” (Janssen Pharmaceutica N.V., priority 1990, dated 1996)
